Laboratory results reported in patent US20230140276A1, “TRICYCLIC COMPOUNDS, PREPARATION METHOD AND MEDICAL USE THEREOF” (HEFEI INSTITUTE OF PHARMACEUTICAL INDUSTRY CO., LTD., priority 2020, published 2023).

Tests used:
[1] = tested on: pilocarpine-induced saliva secretion; experiment: Pilocarpine-induced salivation in rats; details: 10 mg/kg intragastric; pilocarpine 1 mg/kg i.p. 15 minutes later; saliva collected 10 minutes
Procedure: Rats in each group were given corresponding drugs by intragastric administration. 15 minutes later, pilocarpine (1 mg/kg, dissolved in physiological saline) was injected intraperitoneally to induce saliva secretion. The rat was immediately anesthetized by intraperitoneal injection of 10% chloral hydrate. After the rat was anesthetized, the residual saliva in the oral cavity was taken out with a cotton ball in that the weighed cotton ball (M1) was placed in the oral cavity (two under the tongue and one for each on both sides). The cotton ball was taken out 10 minutes later and the weight of the cotton ball (M2) was immediately measured.
Inhibition rate=Saliva secretion in drug administration group/Saliva secretion in model group×100%

[2] = tested on: histamine-induced skin vascular permeability; experiment: Inhibitory effect on histamine-induced vascular permeability in mice; format: in vivo, ICR mice; details: Mus musculus, po; 5 mg/kg intragastric 1 hour before modeling; histamine phosphate 1 ug/0.1 mL; Evans Blue absorbance at 610 nm; read-out: Inhibition rate (%)
Procedure: Intragastric administration was performed 1 hour before modeling. The model group was given the corresponding solvent. […] 10% sodium sulfide was used to depilate the back of mice (3 cm×3 cm). The mice were injected 1 ug/0.1 mL of histamine phosphate physiological saline solution into the depilation site one hour after the administration, and injected 0.25% Evans Blue solution 4 ml/kg from the tail vein immediately after the injection. After 30 minutes, the mice were dislocated and sacrificed. The blue-stained part of the skin was removed and perforated (diameter 15 mm), cut into pieces and soaked in 1 ml of acetone-saline (7:3) solution. After 24 h, it was centrifuged (3000 r/min, 10 min) to take the supernatant. The absorbance of the sample was measured with an ultraviolet spectrophotometer at a wavelength of 610 nm and a blank zero calibration with acetone-physiological saline solution.

Inhibition rate (%) [1] | Structure (SMILES) | inhibition in vivo at 5 mg/kg [2]
5.13% | Cc1cc(C(C)(C)C(=O)O)ccc1CCCN1CCC(=C2c3ccc(Cl)cc3CCc3cccnc32)CC1 [Example 10, 2-(4-(3-(4-(8-chloro-5,6-dihydro-11H-benzo[5,6]cyclohepta[1,2-b]pyridine-11-enyl)piperidine-1-yl)propyl)-3-methylphenyl)-2-methylpropionic acid] | 41.2%
3.78% | CC(C)(C(=O)O)c1ccc(CCCN2CCC(=C3c4ccc(Cl)cc4CCc4cccnc43)CC2)c(Br)c1 [Example 14, 2-(3-Bromo-4-(3-(4-(8-chloro-5,6-dihydro-11H-benzo[5,6]cyclohept[1,2-b]pyridine-11-enyl)piperidin-1-yl)propyl)phenyl)-2-methylpropionic acid] | 42.8%
12.01% | CC(C)(C(=O)O)c1ccc(CCCN2CCC(=C3c4ccc(Cl)cc4CCc4cccnc43)CC2)cc1F [Example 9, 2-(4-(3-(4-(8-chloro-5,6-dihydro-11H-benzo[5,6]cyclohepta[1,2-b]pyridine-11-enyl)piperidine-1-yl)propyl)-2-fluorophenyl)-2-methylpropionic acid] | 50.6%
6.34% | CC(C)(C(=O)O)c1ccc(CCCN2CCC(=C3c4ccc(Cl)cc4CCc4cccnc43)CC2)c(N)c1 [Example 6, 2-(3-Amino-4-(3-(4-(8-chloro-5,6-dihydro-11H-benzo[5,6]cyclohept[1,2-b]pyridine-11-enyl)piperidin-1-yl)propyl)phenyl)-2-methylpropionic acid] | 53.2%
10.32% | CC(C)(C(=O)O)c1ccc(CCCCN2CCC(=C3c4ccc(Cl)cc4CCc4cccnc43)CC2)cc1 [Example 24] | 47.6%
10.76% | CC(C)(C(=O)O)c1ccc(CCCN2CCC(=C3c4ccc(Cl)cc4CCc4cccnc43)CC2)c([N+](=O)[O-])c1 [Example 16, 2-(4-(3-(4-(8-chloro-5,6-dihydro-11H-benzo[5,6]cyclohepta[1,2-b]pyridine-11-enyl)piperidine-1-yl)propyl)-2-nitrophenyl)-2-methylpropionic acid] | 50.8%
19.65% | CC(C)(C(=O)O)c1ccccc1CCCN1CCC(=C2c3ccc(Cl)cc3CCc3cccnc32)CC1 [Example 28, 2-(2-(3-(4-(8-chloro-5,6-dihydro-11H-benzo[5,6]cyclohepta[1,2-b]pyridine-11-enyl)piperidine-1-yl)propyl)phenyl)-2-methylpropionic acid] | 43.8%
7.64% | CC(C)(C(=O)O)c1ccc(CCN2CCC(=C3c4ccc(Cl)cc4CCc4cccnc43)CC2)cc1 [Example 2, 2-(4-(2-(4-(4-(8-chloro-5,6-dihydro-11H-benzo[5,6]]cyclohept[1,2-b]pyridine-11-enyl)piperidin-1-yl)ethyl)phenyl)-2-methylpropionic acid] | 54%
8.42% | CC(C)(C(=O)O)c1ccc(CCCN2CCC(=C3c4ccc(Cl)cc4CCc4cccnc43)CC2)c(Cl)c1 [Example 15, 2-(3-chloro-4-(3-(4-(8-chloro-5,6-dihydro-11H-benzo[5,6]cyclohept[1,2-b]pyridine-11-enyl)piperidin-1-yl)propyl)phenyl)-2-methylpropionic acid] | 52.8%
9.68% | CC(C)(C(=O)O)c1cccc(CCCN2CCC(=C3c4ccc(Cl)cc4CCc4cccnc43)CC2)c1 [Example 25, 2-(3-(3-(4-(8-chloro-5,6-dihydro-11H-benzo [5,6]cyclohepta [1,2-b]pyridine-11-enyl)piperidine-1-yl)propyl)phenyl)-2-methylpropionic acid] | 66.8%
7.48% | CC(C)(C(=O)O)c1ccc(CCCN2CCC(=C3c4ccc(Cl)cc4CCc4cccnc43)CC2)c(C(F)(F)F)c1 [Example 12] | 44.6%

The remaining lines, values behind:

Structure (SMILES) | Inhibition rate (%) [1] | inhibition in vivo at 5 mg/kg [2]
CC(C)(C(=O)O)c1cccc(C(O)CCN2CCC(=C3c4ccc(Cl)cc4CCc4cccnc43)CC2)c1 (stereo not drawn) [Example 31, 2-(3-(3-(4-(8-chloro-5,6-dihydro-11H-benzo[5,6]cyclohepta[1,2-b]pyridine-11-enyl)piperidine-1-yl)-1-hydroxypropyl)phenyl)-2-methylpropionic acid] | 13.25% | 48%
CC(C)(C(=O)O)c1ccc(CCCN2CCC(=C3c4ccccc4CC(O)c4sccc43)CC2)cc1 (stereo not drawn) [Example 23, 2-(4-(3-(4-(10-hydroxy-9,10-dihydro-4H-benzo[4,5]cyclohept[1,2-b]thiophen-4-alkylene)piperidin-1-yl)propyl)phenyl)-2-methylpropionic acid] | 8.54% | 66.7%
CC(C)(C(=O)O)c1ccc(CCCN2CCC(=C3c4ccccc4CC(=O)c4sccc43)CC2)cc1 [Example 22, 2-Methyl-2-(4-(3-(4-(10-oxo-9,10-dihydro-4H-benzo[4,5]cyclohepta[1,2-b]thiophene-4-alkylene)piperidin 1-yl)propyl)phenyl) propionic acid] | 18.43% | 63.3%
CC(C)(C(=O)O)c1cccc(C(O)CCCN2CCC(=C3c4ccc(Cl)cc4CCc4cccnc43)CC2)c1 (stereo not drawn) [Example 30, 2-(3-(4-(4-(8-chloro-5,6-dihydro-11H-benzo[5,6]cyclohepta[1,2-b]pyridine-11-enyl)piperidine-1-yl)-1-hydroxybutyl)phenyl)-2-methylpropionic acid] | 6.74% | 52.2%
CC(C)(C(=O)O)c1ccc(CCCN2CCC(=C3c4ccc(Cl)cc4CCc4cc(O)cnc43)CC2)cc1 [Example 20] | 7.65% | 58%
CC(C)(C(=O)O)c1ccc(CCCN2CCC(=C3c4ccc(Cl)cc4C(O)Cc4cccnc43)CC2)cc1 (stereo not drawn) [Example 19] | 11.83% | 53.3%
CC(C)(C(=O)O)c1ccc(CCCN2CCC(=C3c4ccc(Cl)cc4CC(O)c4cccnc43)CC2)cc1 (stereo not drawn) [Example 18] | 12.50% | 46.6%
CC(C)(C(=O)O)c1cccc(CCCN2CCC(=C3c4ccccc4CC(O)c4sccc43)CC2)c1 (stereo not drawn) [Example 27, 2-(3-(3-(4-(10-hydroxy-9,10-dihydro-4H-benzo[4,5]cyclohepta[1,2-b]thiophene-4-alkylene)piperidin-1-yl)propyl)phenyl)-2-methylpropionic acid] | 5.48% | 48.8%
CC(C)(C(=O)O)c1ccc(CCCN2CCC(=C3c4ccc(Cl)cc4CCc4cccnc43)CC2)cc1C(F)(F)F [Example 13] | 5.77% | 51%
CC(C)(C(=O)O)c1ccc(CCCN2CCC(=C3c4ccc(Cl)cc4CCc4cccnc43)CC2)cc1[N+](=O)[O-] [Example 17, 2-(4-(3-(4-(8-chloro-5,6-dihydro-11H-benzo[5,6]cyclohepta[1,2-b]pyridine-11-enyl)piperidine-1-yl)propyl)-3-nitrophenyl)-2-methylpropionic acid] | 6.54% | 49.2%
